Measured values from US20250387378A1, “METHODS AND COMPOSITIONS FOR PREVENTING SKIN TOXICITIES CAUSED BY BIOLOGICAL TARGETED CANCER DRUGS” (Hadasit Medical Research Services & Development Limited, priority 2019, published 2025).
“Also recorded” adds a separate entry of the source. Counter-ions that a name gives are not always drawn.

Key:
[1] = test system: keratinocytes; assay: percent live keratinocytes after adding sn molecules to erlotinib and gefitinib; assay type: cell-based; conditions: added to erlotinib and gefitinib, FIG. 9B
[2] = target: T1, EGFR (Homo sapiens, UniProt P00533); assay: ELISA, blocking of cetuximab binding to EGFR; conditions: for blocking of cetuximab binding to EGFR (in words): ELISA
[3] = target: recombinant human EGFR (rhEGFR) (Homo sapiens, UniProt P00533); assay: ELISA, inhibition of bispecific EGFRi antibody binding to rhEGFR
Method: (§1) The efficacity of SDT-011 efficacy in preventing bispecific EGFRi binding to recombinant human EGFR (rhEGFR) was evaluated. ELISA was used to assess binding inhibition, while MTT assays in HaCaT and A431 cell lines measured the reversal of EGFR inhibition on keratinocyte cell line proliferation, and flow cytometry quantified EGFR expression on the cell surface. Additionally, in silico docking experiments provided insights into SDT-011's mechanism of action in blocking amivantamab, petosemtamab, and izalontamab.

[4] = test system: phosphorylated EGFR receptor; assay: p-EGFR level by flow cytometry, A431 cells treated with EGF and cetuximab; assay type: cell-based; conditions: for effect on p-EGFR expression (in words): A431 cells treated with cetuximab, 5 uM compound; for activated levels of p-EGFR: A431 cells, 20 minutes, EGF, cetuximab and 5 uM compound
Method: (§2) The level of phosphorylated EGFR receptor was measured in cell lines by flow cytometry.

[5] = test system: phosphorylated EGFR receptor; assay: p-EGFR level by flow cytometry, HaCaT cells treated with EGF and cetuximab; assay type: cell-based, human; conditions: for effect on p-EGFR expression (in words): HaCaT cells treated with cetuximab, 5 uM compound
Method: (§3) The novel approach proposed by the invention is to specifically target and block the effect of the anti-neoplastic biological targeted agents in the skin.
as §2

[6] = test system: HaCaT and A431 cell lines; assay: MTT proliferation assay with bispecific EGFRi; assay type: cell-based; conditions: keratinocyte cell lines
Method: as §1

[7] = target: T1, EGFR; assay: flow cytometry of EGFR expression on the cell surface with bispecific EGFRi; assay type: cell-based
Method: as §1

[8] = test system: A431 cells; assay: annexin-V/PI flow cytometry, panitumumab induced death in A431 cells; assay type: cell-based; conditions: 72 hours
Method: Apoptosis and cell death were evaluated by annexin-V and propidium-iodide (PI) labeling, followed by flow cytometry. The experiments show improved cell viability of A431 cells treated with G-4 and E-3 compounds with panitumumab as compared to panitumumab alone. A) flow cytometry of one representative experiment showing elevation of percentage of live cells from 18% live cells after panitumumab alone verses 40% live cells with panitumumab and G-4 compound and 42% live cells with E-3 compound and panitumumab treatment. B) bar graph depicting percent live A431 cells with the different treatment conditions.

[9] = target: T1, EGFR; assay: blocking of panitumumab (vectibix) binding to EGFR; conditions: FIG. 3
[10] = test system: HaCaT cells; assay: annexin-V/PI flow cytometry, erlotinib induced death in HaCaT cells; assay type: cell-based, human; conditions: erlotinib alone, 72 hours
Method: To test if ATP analogues can protect keratinocyte from erlotinib induced death we treated HaCaT cells with erlotinib alone and with erlotinib+5 uM ATP analogue for 72 hours. Apoptosis and cell death were evaluated by annexin-V and propidium-iodide (PI) labeling, followed by flow cytometry. […] B) bar graph depicting percent dead HaCaT cells with the different treatment conditions.

[11] = Franz chamber skin penetration; assay type: in vitro ADME, human; conditions: FIG. 12
Text: The inventors designed and fabricated solidified polymer micelles composed of linear […] (PEG-PLA) of ˜20 nm, which was previously shown to have stability and ability to penetrate cells efficiently.

[12] = test system: HaCaT cells; assay: annexin-V/PI flow cytometry, cetuximab induced cell death in HaCaT cells; assay type: cell-based, human
Method: as §3
(§4) Apoptosis and cell death were evaluated by annexin-V and propidium-iodide (PI) labeling, followed by flow cytometry.

[13] = test system: A431 cells; assay: annexin-V/PI flow cytometry, cetuximab induced cell death in A431 cells; assay type: cell-based
Method: as §4

[14] = test system: HaCaT keratinocytes; assay: percent survival of HaCaT keratinocytes with trametinib plus sn8; assay type: cell-based, human; conditions: added to trametinib, FIG. 9B
[15] = panitumumab + compound (0.5 uM and 5 uM)
[16] = G-4 added to cetuximab treatment, 72 hours, one representative experiment
[17] = cetuximab + 0.5 uM and 5 uM G-4, 72 hours

N#Cc1cc(N)ccc1F [sn6]
percent live keratinocytes (in words) [1]: improved percent live keratinocytes

Cc1ccc(-c2cc(C(F)(F)F)c3c(N)c(C#N)sc3n2)cc1 [LW11]
blocking of cetuximab binding to EGFR (in words) [2]: dose-dependent manner; also recorded: block cetuximab's binding to EGFR
inhibition of amivantamab binding to EGFR (in words) ([3]; FIG. 17 panel A): effectively inhibited the binding
inhibition of petosemtamab binding to EGFR (in words) ([3]; FIG. 17 panel B): effectively inhibited the binding
inhibition of izalontamab binding to EGFR (in words) ([3]; FIG. 17 panel C): effectively inhibited the binding
effect on p-EGFR expression (in words) [4]: increase p-EGFR expression
activated levels of p-EGFR [4]: ~30%
effect on p-EGFR expression (in words) [5]: increase p-EGFR expression
activated levels of p-EGFR ([5]; HaCaT cells, 20 minutes, EGF, cetuximab and 5 uM compound): up to 46%
antiproliferative effects induced by amivantamab (in words) ([6]; FIG. 18 panel D): reversal of the antiproliferative effects
antiproliferative effects induced by petosemtamab (in words) ([6]; FIG. 18 panel E): reversal of the antiproliferative effects
antiproliferative effects induced by izalontamab (in words) ([6]; FIG. 18 panel F): reversal of the antiproliferative effects
total EGFR (tEGFR) expression / receptor internalization by amivantamab (in words) ([7]; FIG. 18 panel A): stabilizes total EGFR (tEGFR) expression
total EGFR (tEGFR) expression / receptor internalization by petosemtamab (in words) ([7]; FIG. 18 panel B): stabilizes total EGFR (tEGFR) expression
total EGFR (tEGFR) expression / receptor internalization by izalontamab (in words) ([7]; FIG. 18 panel C): stabilizes total EGFR (tEGFR) expression

CC(=O)Nc1ccc(F)c(Cl)c1 [sn7]
percent live keratinocytes (in words) [1]: improved percent live keratinocytes

panitumumab: human monoclonal antibody specific to the epidermal growth factor receptor [reference compound]
live cells ([8]; panitumumab alone): 18%

Cc1cc(Cl)cc(N)c1N [E3, (2-amino-4-chloro-6-methylphenyl)amine hydrochloride]
blocking of cetuximab binding to EGFR (in words) ([2]; hydrochloride): blocking of cetuximab binding to EGFR; also recorded: dose-dependent manner
live cells [8, 15]: 42%
blocking of panitumumab (vectibix) binding to EGFR (in words) [9]: block the binding

O=C(CN1C(=O)c2ccccc2C1=O)Nc1cccc(Cl)c1 [sn9]
percent live keratinocytes (in words) [1]: improved percent live keratinocytes

C#Cc1cccc(Nc2ncnc3cc(OCCOC)c(OCCOC)cc23)c1 [erlotinib]
dead cells [10]: 13.5%

CC(=O)c1sc2nc(-c3cccnc3)cc(C(F)F)c2c1N [G4, 1-[3-amino-4-(difluoromethyl)-6-(3-pyridinyl)thieno[2,3-b]pyridin-2-yl]ethanone]
blocking of cetuximab binding to EGFR (in words) [2]: blocking of cetuximab binding to EGFR; also recorded: dose-dependent manner; also recorded: block cetuximab's binding to EGFR
blocking of binding of cetuximab to EGFR ([2]; screening plate, FIG. 2A): 42%
penetration through full human skin (in words) [11]: does not penetrate full human skin
live cells [8, 15]: 40%
effect on p-EGFR expression (in words) [4]: increase p-EGFR expression
activated levels of p-EGFR [4]: ~30%
blocking of panitumumab (vectibix) binding to EGFR (in words) [9]: block the binding
live cells [12, 16]: 64%
average improvement of viability against cetuximab induced cell death [12, 17]: 30%
effect on p-EGFR expression (in words) [5]: increase p-EGFR expression
live cells [13, 16]: 54.5%
average improvement of viability against cetuximab induced cell death [13, 17]: more than 50%

Nc1ccc(OCc2ccccn2)c(Cl)c1 [sn8]
percent survival of HaCaT keratinocytes (in words) [14]: improved percent survival of HaCaT keratinocytes
percent live keratinocytes (in words) [1]: improved percent live keratinocytes
